Patent publication US9815832B2 (priority 2013, dated 2017)
Where a name gives a salt, the structure may show the parent alone.

target: human recombinant PDE4B (Homo sapiens (Human), UniProt Q07343, S133E/S654A/S659A/S661A); conditions: read-out: Human PDE4B FL
Sequence (Q07343 122-736 S133E/S654A/S659A/S661A): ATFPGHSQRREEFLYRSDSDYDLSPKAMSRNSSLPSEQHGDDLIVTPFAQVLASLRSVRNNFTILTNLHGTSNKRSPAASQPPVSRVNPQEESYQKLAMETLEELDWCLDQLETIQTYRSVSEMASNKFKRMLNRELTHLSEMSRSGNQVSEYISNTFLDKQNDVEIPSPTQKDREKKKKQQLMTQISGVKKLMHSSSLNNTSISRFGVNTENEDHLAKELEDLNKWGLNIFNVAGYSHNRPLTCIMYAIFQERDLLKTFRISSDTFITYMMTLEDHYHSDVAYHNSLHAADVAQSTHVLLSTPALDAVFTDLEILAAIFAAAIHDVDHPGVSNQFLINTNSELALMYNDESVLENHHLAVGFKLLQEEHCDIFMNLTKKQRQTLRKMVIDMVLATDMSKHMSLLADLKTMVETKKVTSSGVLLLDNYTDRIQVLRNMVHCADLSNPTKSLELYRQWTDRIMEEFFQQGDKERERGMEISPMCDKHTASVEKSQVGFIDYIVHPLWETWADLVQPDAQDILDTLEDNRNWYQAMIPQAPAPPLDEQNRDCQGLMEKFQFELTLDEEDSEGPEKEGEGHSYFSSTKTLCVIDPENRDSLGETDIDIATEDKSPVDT
Method: Reactions are incubated for 30 min at 25° C. The addition of 20 μL of 8 mg/mL yitrium silicate SPA beads (PerkinElmer) stops the reaction. The plates are sealed (TopSeal, PerkinElmer) and the beads are allowed to settle for 8 hrs, after which they are read on the Trilux Microbeta overnight.

Point of comparison: `O=C(NC1CC1)c1nc2cccnc2n1-c1ccc(F)c(F)c1` [Example 62, N-Cyclopropyl-3-(3,4-difluorophenyl)-3H-imidazo[4,5-b]pyridine-2-carboxamide], IC50 34.9 nM. Against it:
- O=C(NC1CC1)c1nc2cccnc2n1-c1ccc2c(c1)COC2 [Example 61, N-Cyclopropyl-3-(1,3-dihydro-2-benzofuran-5-yl)-3H-imidazo[4,5-b]pyridine-2-carboxamide] — 45-fold higher, 1580 nM
- O=C(NC1CC1)c1nc2cccnc2n1-c1cccc(Cl)c1F [Example 78, 3-(3-Chloro-2-fluorophenyl)-N-cyclopropyl-3H-imidazo[4,5-b]pyridine-2-carboxamide, trifluoroacetate salt] — 11-fold higher, 387 nM
- Cc1cc(Cl)ccc1-n1c(C(=O)N2CC(F)C2)nc2cccnc21 [Example 35, [3-(4-Chloro-2-methylphenyl)-3H-imidazo[4,5-b]pyridin-2-yl](3-fluoroazetidin-1-yl)methanone] — 32-fold higher, 1130 nM
- O=C(c1nc2cccnc2n1-c1ccc(Cl)cc1)N1CCC1 [Example 16, Azetidin-1-yl[3-(4-chlorophenyl)-3H-imidazo[4,5-b]pyridin-2-yl]methanone] — 5.6-fold higher, 196 nM
- O=C(NC1CC1)c1nc2cccnc2n1-c1ccc(Cl)cc1F [Example 23, 3-(4-Chloro-2-fluorophenyl)-N-cyclopropyl-3H-imidazo[4,5-b]pyridine-2-carboxamide] — 18-fold higher, 632 nM
- Cc1cc(C)cc(-n2c(C(=O)NC3CC3)nc3cccnc32)c1 [Example 76, N-Cyclopropyl-3-(3,5-dimethylphenyl)-3H-imidazo[4,5-b]pyridine-2-carboxamide] — 11-fold higher, 374 nM
- O=C(NC1CC1)c1nc2cccnc2n1-c1ccccc1 [Example 57, N-Cyclopropyl-3-phenyl-3H-imidazo[4,5-b]pyridine-2-carboxamide] — 33-fold higher, 1160 nM
- COc1ccc(-n2c(C(=O)NC3CC3)nc3cccnc32)cc1OC [Example 87, N-Cyclopropyl-3-(3,4-dimethoxyphenyl)-3H-imidazo[4,5-b]pyridine-2-carboxamide] — 78-fold higher, 2720 nM
- O=C(NC1CC1)c1nc2cccnc2n1-c1ccnc(C(F)(F)F)c1 [Example 82, N-Cyclopropyl-3-[2-(trifluoromethyl)pyridin-4-yl]-3H-imidazo[4,5-b]pyridine-2-carboxamide] — 170-fold higher, 6070 nM
- Cn1ccc(NC(=O)c2nc3cccnc3n2-c2ccc(Cl)cc2)n1 [Example 24, 3-(4-Chlorophenyl)-N-(1-methyl-1H-pyrazol-3-yl)-3H-imidazo[4,5-b]pyridine-2-carboxamide] — 6-fold higher, 211 nM
- CCNC(=O)c1nc2cccnc2n1-c1cncc(Cl)c1 [Example 81, 3-(5-Chloropyridin-3-yl)-N-ethyl-3H-imidazo[4,5-b]pyridine-2-carboxamide] — 240-fold higher, 8270 nM
- O=C(NC1CC1)c1nc2cccnc2n1-c1ccc(C(F)(F)F)cc1 [Example 92, N-Cyclopropyl-3-[4-(trifluoromethyl)phenyl]-3H-imidazo[4,5-b]pyridine-2-carboxamide] — 89-fold higher, 3110 nM
- COc1cc(-n2c(C(=O)NC3CC3)nc3cccnc32)ccc1F [Example 55, N-Cyclopropyl-3-(4-fluoro-3-methoxyphenyl)-3H-imidazo[4,5-b]pyridine-2-carboxamide] — 8.7-fold higher, 304 nM
- CCCNC(=O)c1nc2cccnc2n1-c1ccc(Cl)cc1 [Example 13, 3-(4-Chlorophenyl)-N-propyl-3H-imidazo[4,5-b]pyridine-2-carboxamide] — 27-fold higher, 944 nM
- O=C(NC1CC1)c1nc2cccnc2n1-c1cncc(Cl)c1 [Example 37, 3-(5-Chloropyridin-3-yl)-N-cyclopropyl-3H-imidazo[4,5-b]pyridine-2-carboxamide] — 12-fold higher, 409 nM
- Cc1ccc(-n2c(C(=O)NC3CC3)nc3cccnc32)c(C)c1 [Example 59, N-Cyclopropyl-3-(2,4-dimethylphenyl)-3H-imidazo[4,5-b]pyridine-2-carboxamide] — 29-fold higher, 1020 nM
- Cc1cc(-n2c(C(=O)NC3CC3)nc3cccnc32)c(Cl)cc1F [Example 84, 3-(2-Chloro-4-fluoro-5-methylphenyl)-N-cyclopropyl-3H-imidazo[4,5-b]pyridine-2-carboxamide] — 480-fold higher, 16600 nM
- Cc1ccc(Cl)c(-n2c(C(=O)NC3CC3)nc3cccnc32)c1 [Example 91, 3-(2-Chloro-5-methylphenyl)-N-cyclopropyl-3H-imidazo[4,5-b]pyridine-2-carboxamide] — 270-fold higher, 9420 nM
- Cc1ccc(-n2c(C(=O)N3CC(F)C3)nc3cccnc32)cc1F [Example 19, (3-Fluoroazetidin-1-yl)[3-(3-fluoro-4-methylphenyl)-3H-imidazo[4,5-b]pyridin-2-yl]methanone] — 8.1-fold higher, 281 nM
- Cc1ccc(-n2c(C(=O)NC3CC3)nc3cccnc32)cn1 [Example 85, N-Cyclopropyl-3-(6-methylpyridin-3-yl)-3H-imidazo[4,5-b]pyridine-2-carboxamide] — 220-fold higher, 7730 nM
- Cc1cccc(-n2c(C(=O)NC3CC3)nc3cccnc32)c1 [Example 70, N-Cyclopropyl-3-(3-methylphenyl)-3H-imidazo[4,5-b]pyridine-2-carboxamide] — 12-fold higher, 421 nM
- COc1ccc(-n2c(C(=O)NC3CC3)nc3cccnc32)cc1 [Example 58, N-Cyclopropyl-3-(4-methoxyphenyl)-3H-imidazo[4,5-b]pyridine-2-carboxamide] — 14-fold higher, 506 nM
- COc1cncc(-n2c(C(=O)NC3CC3)nc3cccnc32)c1 [Example 83, N-Cyclopropyl-3-(5-methoxypyridin-3-yl)-3H-imidazo[4,5-b]pyridine-2-carboxamide] — 390-fold higher, 13600 nM
- Cc1cc(Cl)ccc1-n1c(C(=O)N2CCC2)nc2cccnc21 [Example 34, Azetidin-1-yl[3-(4-chloro-2-methylphenyl)-3H-imidazo[4,5-b]pyridin-2-yl]methanone] — 11-fold higher, 399 nM
- Cc1ccc(-n2c(C(=O)NC3CC3)nc3cccnc32)c(F)c1 [Example 67, N-Cyclopropyl-3-(2-fluoro-4-methylphenyl)-3H-imidazo[4,5-b]pyridine-2-carboxamide] — 18-fold higher, 619 nM
- NC(=O)c1nc2cccnc2n1-c1ccc(Cl)c(F)c1 [Example 17, 3-(4-Chloro-3-fluorophenyl)-3H-imidazo[4,5-b]pyridine-2-carboxamide] — 240-fold higher, 8510 nM
- O=C(c1nc2cccnc2n1-c1ccc(Cl)cc1F)N1CCC1 [Example 22, Azetidin-1-yl[3-(4-chloro-2-fluorophenyl)-3H-imidazo[4,5-b]pyridin-2-yl]methanone] — 7.8-fold higher, 273 nM
- O=C(NC1CC1)c1nc2cccnc2n1-c1ccc(F)cc1F [Example 43, N-Cyclopropyl-3-(2,4-difluorophenyl)-3H-imidazo[4,5-b]pyridine-2-carboxamide] — 27-fold higher, 927 nM
- O=C(c1nc2cccnc2n1-c1ccc(Cl)c(F)c1)N1CC(F)C1 [Example 21, [3-(4-Chloro-3-fluorophenyl)-3H-imidazo[4,5-b]pyridin-2-yl](3-fluoroazetidin-1-yl)methanone] — within 1.5-fold, 42.6 nM
- O=C(c1nc2cccnc2n1-c1ccc(Cl)cc1F)N1CC(F)C1 [Example 25, [3-(4-Chloro-2-fluorophenyl)-3H-imidazo[4,5-b]pyridin-2-yl](3-fluoroazetidin-1-yl)methanone] — 26-fold higher, 910 nM
- Cc1ccc(-n2c(C(=O)N3CCC3)nc3cccnc32)cc1F [Example 18, Azetidin-1-yl[3-(3-fluoro-4-methylphenyl)-3H-imidazo[4,5-b]pyridin-2-yl]methanone] — within 1.5-fold, 48.7 nM
- N#Cc1c(F)cc(-n2c(C(=O)NC3CC3)nc3cccnc32)cc1F [Example 20, 3-(4-Cyano-3,5-difluorophenyl)-N-cyclopropyl-3H-imidazo[4,5-b]pyridine-2-carboxamide] — 2.5-fold lower, 13.8 nM
- O=C(NC1CC1)c1nc2cccnc2n1-c1ccc2ncccc2c1 [Example 80, N-Cyclopropyl-3-(quinolin-6-yl)-3H-imidazo[4,5-b]pyridine-2-carboxamide, trifluoroacetate salt] — 42-fold higher, 1470 nM
- CN(C)C(=O)c1nc2cccnc2n1-c1ccc(Cl)c(F)c1 [Example 11, 3-(4-Chloro-3-fluorophenyl)-N,N-dimethyl-3H-imidazo[4,5-b]pyridine-2-carboxamide] — 12-fold higher, 405 nM
- Cc1ccc(-n2c(C(=O)NC3CC3)nc3cccnc32)c(Cl)c1 [Example 88, 3-(2-Chloro-4-methylphenyl)-N-cyclopropyl-3H-imidazo[4,5-b]pyridine-2-carboxamide] — 110-fold higher, 3700 nM
- Cc1cc(Cl)ccc1-n1c(C(=O)NC2CC2)nc2cccnc21 [Example 26, 3-(4-Chloro-2-methylphenyl)-N-cyclopropyl-3H-imidazo[4,5-b]pyridine-2-carboxamide] — 9.1-fold higher, 319 nM
- O=C(c1nc2cccnc2n1-c1cc(F)c(Cl)cc1F)N1CCC1 [Example 12, Azetidin-1-yl[3-(4-chloro-2,5-difluorophenyl)-3H-imidazo[4,5-b]pyridin-2-yl]methanone, trifluoroacetate salt] — 2.8-fold higher, 99.4 nM
- O=C(NC1CC1)c1nc2cccnc2n1-c1cccc(F)c1 [Example 65, N-Cyclopropyl-3-(3-fluorophenyl)-3H-imidazo[4,5-b]pyridine-2-carboxamide] — 5.4-fold higher, 188 nM
- COc1ccc(-n2c(C(=O)NC3CC3)nc3cccnc32)c(C)c1 [Example 89, N-Cyclopropyl-3-(4-methoxy-2-methylphenyl)-3H-imidazo[4,5-b]pyridine-2-carboxamide] — 100-fold higher, 3520 nM
- O=C(NC1CC1)c1nc2cccnc2n1C1Cc2ccccc2C1 [Example 47, N-Cyclopropyl-3-(2,3-dihydro-1H-inden-2-yl)-3H-imidazo[4,5-b]pyridine-2-carboxamide] — 36-fold higher, 1260 nM
- N#Cc1ccc(-n2c(C(=O)NC3CC3)nc3cccnc32)cn1 [Example 39, 3-(6-Cyanopyridin-3-yl)-N-cyclopropyl-3H-imidazo[4,5-b]pyridine-2-carboxamide] — 10-fold higher, 363 nM
- Cc1ccc(-n2c(C(=O)NC3CC3)nc3cccnc32)cc1 [Example 29, N-Cyclopropyl-3-(4-methylphenyl)-3H-imidazo[4,5-b]pyridine-2-carboxamide] — 6.4-fold higher, 225 nM
- COc1cc(-n2c(C(=O)NC3CC3)nc3cccnc32)ccc1C [Example 50, N-Cyclopropyl-3-(3-methoxy-4-methylphenyl)-3H-imidazo[4,5-b]pyridine-2-carboxamide] — 9.7-fold higher, 339 nM
